This is an account of results in the supplement of paper PMC8967900.
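Also: ALL cell lines in 384-well plates, five doses spanning 10,000-fold, each plate scaled between vehicle and 100 µmol/L benzalkonium chloride controls, sDSS an adapted area-under-curve metric.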

The first experiment concerns LC4-1. Description: selective drug sensitivity score (sDSS, relative to normal bone marrow) (sDSS (score)); higher = more potent and effective on the cell line relative to normal bone marrow cells. The following applies: 72 h.
For `COC12C(COC(N)=O)C3=C(C(=O)C(C)=C(N)C3=O)N1CC1NC12` (stereo in doubt) [Mitomycin_C] (top concentration 10000 nM), the “selective drug sensitivity score” value turned out to be 2.34.

As to `Cc1c(-c2c(-c3ccc(F)o3)sc3ncnc(O[C@H](Cc4ccccc4OCc4ccnn4CC(F)(F)F)C(=O)O)c23)ccc(OCCN2CCN(C)CC2)c1Cl` (top concentration 1000 nM), the “selective drug sensitivity score” value was -0.54.

In the case of `Cc1ncc(Cl)cc1NCc1ccc(C(=O)N[C@@H](CC2CCCC2)C(=O)NC2CC2)s1` (top concentration 5000 nM), the “selective drug sensitivity score” value was -0.94.

As to `CCn1c(-c2nonc2N)nc2c(C#CC(C)(C)O)ncc(OC[C@H]3CCCNC3)c21` (top concentration 10000 nM), the “selective drug sensitivity score” value worked out at 1.08.

Turning to `CN(c1ncccc1CNc1nc(Nc2ccc3c(c2)CC(=O)N3)ncc1C(F)(F)F)S(C)(=O)=O` (top concentration 10000 nM), the “selective drug sensitivity score” value is 3.82.

For the compound `CNc1ncc2cc(-c3cc(NC(=O)NCCC(C)(C)C)c(F)cc3C)c(C)nc2n1` (top concentration 10000 nM), the “selective drug sensitivity score” value is 7.86.

Turning to `C[C@@]1(C(=O)Nc2ccc(F)nc2)CCCN1c1nc(Nc2cc(C3CC3)n[nH]2)c2cccn2n1` (top concentration 10000 nM), the “selective drug sensitivity score” value is 11.4.

With `Cc1nc(Nc2n[nH]c3c2CN(C(=O)N[C@H](CN(C)C)c2ccccc2)C3(C)C)c2sccc2n1` (top concentration 10000 nM), the “selective drug sensitivity score” value stood at 3.98.

As for `Cn1cc(-c2[nH]c3cc(NC(=O)[C@H](N)C4CCCCC4)cc4c3c2C=NNC4=O)cn1` (top concentration 10000 nM), the “selective drug sensitivity score” value amounted to 7.58.

Take `Cn1cc(-c2ccc(F)c(C(F)(F)F)c2)nc1C1CCN(c2ncnc3[nH]ncc23)CC1` (top concentration 10000 nM): the “selective drug sensitivity score” value stood at 5.56.

In the case of `O=C(Nc1ccc2[nH]nc(-c3ccncc3)c2c1)[C@@H]1CCN(CC(=O)N2CCN(c3ccc(-c4ncccn4)cc3)CC2)C1` (top concentration 10000 nM), the “selective drug sensitivity score” value was 4.26.

On to `CC(C)(C)c1cc(NC(=O)Nc2ccc(Oc3ccnc4[nH]c(=O)cnc34)cc2F)n(-c2ccccc2)n1` (top concentration 25000 nM), for which the “selective drug sensitivity score” value was -1.48.

In the case of `Nc1ncnc2c1nc(N)n2[C@@H]1O[C@H](CO)[C@@H](O)[C@H]1O` [8-amino-adenosine] (top concentration 50000 nM), the “selective drug sensitivity score” value came out at 7.78.

Consider `CC(C)[C@@H](CS(=O)(=O)C(C)C)N1C(=O)[C@@](C)(CC(=O)O)C[C@H](c2cccc(Cl)c2)[C@H]1c1ccc(Cl)cc1` [AMG-232] (top concentration 10000 nM), for which the “selective drug sensitivity score” value was determined as 11.3.

For the compound `CC(C)[C@H](C(=O)Nc1ccc(C(=O)NO)cc1)c1ccccc1` [AR-42] (top concentration 10000 nM), the “selective drug sensitivity score” value amounted to 6.88.

As to `O=C(Nc1c[nH]nc1-c1nc2ccc(CN3CCOCC3)cc2[nH]1)NC1CC1` [AT9283] (top concentration 1000 nM), the “selective drug sensitivity score” value came out at 12.4.

Regarding `CCN(CCO)CCCOc1ccc2c(Nc3cc(CC(=O)Nc4cccc(F)c4)[nH]n3)ncnc2c1` [AZD1152-HQPA] (top concentration 1000 nM), the “selective drug sensitivity score” value worked out at 23.2.

`Cc1[nH]nc(C(F)(F)F)c1Cc1sc2c(c1C(=O)N1C[C@](C)(O)CO1)c(=O)n(C)c(=O)n2C(C)C` [AZD3965] (top concentration 1000 nM): the “selective drug sensitivity score” value is 1.5.

Another experiment concerns MHH-CALL-2. The description is as above. The following applies: 72 h.
Regarding `COC12C(COC(N)=O)C3=C(C(=O)C(C)=C(N)C3=O)N1CC1NC12` (stereo in doubt) [Mitomycin_C] (top concentration 10000 nM), the “selective drug sensitivity score” value stood at 1.54.

For the compound `Cc1c(-c2c(-c3ccc(F)o3)sc3ncnc(O[C@H](Cc4ccccc4OCc4ccnn4CC(F)(F)F)C(=O)O)c23)ccc(OCCN2CCN(C)CC2)c1Cl` (top concentration 1000 nM), the “selective drug sensitivity score” value was -6.04.

`Cc1ncc(Cl)cc1NCc1ccc(C(=O)N[C@@H](CC2CCCC2)C(=O)NC2CC2)s1` (top concentration 5000 nM): the “selective drug sensitivity score” value was -0.24.

For `CCn1c(-c2nonc2N)nc2c(C#CC(C)(C)O)ncc(OC[C@H]3CCCNC3)c21` (top concentration 10000 nM), the “selective drug sensitivity score” value is 3.48.

Turning to `CN(c1ncccc1CNc1nc(Nc2ccc3c(c2)CC(=O)N3)ncc1C(F)(F)F)S(C)(=O)=O` (top concentration 10000 nM), the “selective drug sensitivity score” value was -1.28.

`CNc1ncc2cc(-c3cc(NC(=O)NCCC(C)(C)C)c(F)cc3C)c(C)nc2n1` (top concentration 10000 nM): the “selective drug sensitivity score” value stood at 9.76.

Turning to `C[C@@]1(C(=O)Nc2ccc(F)nc2)CCCN1c1nc(Nc2cc(C3CC3)n[nH]2)c2cccn2n1` (top concentration 10000 nM), the “selective drug sensitivity score” value came out at 11.7.

On to `Cc1nc(Nc2n[nH]c3c2CN(C(=O)N[C@H](CN(C)C)c2ccccc2)C3(C)C)c2sccc2n1` (top concentration 10000 nM), for which the “selective drug sensitivity score” value is 0.38.

On to `Cn1cc(-c2[nH]c3cc(NC(=O)[C@H](N)C4CCCCC4)cc4c3c2C=NNC4=O)cn1` (top concentration 10000 nM), for which the “selective drug sensitivity score” value was determined as 3.48.

As for `Cn1cc(-c2ccc(F)c(C(F)(F)F)c2)nc1C1CCN(c2ncnc3[nH]ncc23)CC1` (top concentration 10000 nM), the “selective drug sensitivity score” value was 0.26.

`O=C(Nc1ccc2[nH]nc(-c3ccncc3)c2c1)[C@@H]1CCN(CC(=O)N2CCN(c3ccc(-c4ncccn4)cc3)CC2)C1` (top concentration 10000 nM): the “selective drug sensitivity score” value was 1.26.

For `CC(C)(C)c1cc(NC(=O)Nc2ccc(Oc3ccnc4[nH]c(=O)cnc34)cc2F)n(-c2ccccc2)n1` (top concentration 25000 nM), the “selective drug sensitivity score” value is -1.48.

For the compound `Nc1ncnc2c1nc(N)n2[C@@H]1O[C@H](CO)[C@@H](O)[C@H]1O` [8-amino-adenosine] (top concentration 50000 nM), the “selective drug sensitivity score” value amounted to 3.28.

For the compound `CC(C)[C@@H](CS(=O)(=O)C(C)C)N1C(=O)[C@@](C)(CC(=O)O)C[C@H](c2cccc(Cl)c2)[C@H]1c1ccc(Cl)cc1` [AMG-232] (top concentration 10000 nM), the “selective drug sensitivity score” value was 11.7.

On to `CC(C)[C@H](C(=O)Nc1ccc(C(=O)NO)cc1)c1ccccc1` [AR-42] (top concentration 10000 nM), for which the “selective drug sensitivity score” value turned out to be 11.

As for `O=C(Nc1c[nH]nc1-c1nc2ccc(CN3CCOCC3)cc2[nH]1)NC1CC1` [AT9283] (top concentration 1000 nM), the “selective drug sensitivity score” value is 3.42.

Consider `CCN(CCO)CCCOc1ccc2c(Nc3cc(CC(=O)Nc4cccc(F)c4)[nH]n3)ncnc2c1` [AZD1152-HQPA] (top concentration 1000 nM), for which the “selective drug sensitivity score” value was 6.64.

As to `Cc1[nH]nc(C(F)(F)F)c1Cc1sc2c(c1C(=O)N1C[C@](C)(O)CO1)c(=O)n(C)c(=O)n2C(C)C` [AZD3965] (top concentration 1000 nM), the “selective drug sensitivity score” value was found to be 1.4.

The subject of the next experiment is MOLT-4. The description is as above. Particulars: 72 h.
For `COC12C(COC(N)=O)C3=C(C(=O)C(C)=C(N)C3=O)N1CC1NC12` (stereo in doubt) [Mitomycin_C] (top concentration 10000 nM), the “selective drug sensitivity score” value is -2.86.

`Cc1c(-c2c(-c3ccc(F)o3)sc3ncnc(O[C@H](Cc4ccccc4OCc4ccnn4CC(F)(F)F)C(=O)O)c23)ccc(OCCN2CCN(C)CC2)c1Cl` (top concentration 1000 nM): the “selective drug sensitivity score” value is -2.84.

As to `Cc1ncc(Cl)cc1NCc1ccc(C(=O)N[C@@H](CC2CCCC2)C(=O)NC2CC2)s1` (top concentration 5000 nM), the “selective drug sensitivity score” value turned out to be 3.26.

`CCn1c(-c2nonc2N)nc2c(C#CC(C)(C)O)ncc(OC[C@H]3CCCNC3)c21` (top concentration 10000 nM): the “selective drug sensitivity score” value was determined as 8.68.

On to `CN(c1ncccc1CNc1nc(Nc2ccc3c(c2)CC(=O)N3)ncc1C(F)(F)F)S(C)(=O)=O` (top concentration 10000 nM), for which the “selective drug sensitivity score” value is 1.02.

Take `CNc1ncc2cc(-c3cc(NC(=O)NCCC(C)(C)C)c(F)cc3C)c(C)nc2n1` (top concentration 10000 nM): the “selective drug sensitivity score” value worked out at 6.26.

Regarding `C[C@@]1(C(=O)Nc2ccc(F)nc2)CCCN1c1nc(Nc2cc(C3CC3)n[nH]2)c2cccn2n1` (top concentration 10000 nM), the “selective drug sensitivity score” value was 8.68.

`Cc1nc(Nc2n[nH]c3c2CN(C(=O)N[C@H](CN(C)C)c2ccccc2)C3(C)C)c2sccc2n1` (top concentration 10000 nM): the “selective drug sensitivity score” value is -1.22.

With `Cn1cc(-c2[nH]c3cc(NC(=O)[C@H](N)C4CCCCC4)cc4c3c2C=NNC4=O)cn1` (top concentration 10000 nM), the “selective drug sensitivity score” value was determined as 3.38.
